pIC50: −log10 of the molar value.
How the values were obtained:
P-glycoprotein = P-glycoprotein (Homo sapiens, UniProt P08183); assay: in vitro
Method: MDCKII-MDR1 cells were incubated in cell culture flasks. The incubator was set at 37° C., 5% CO2, and a guaranteed relative humidity of 95%. When the cells reached 70 to 90% confluence, the cells may be seeded to transwells.
50 μL of the cell suspensions were added to the apical chambers of each well of the 96-well transwells at a final seeding density of 5.45×10^5 cells/cm^2.
MDCKII-MDR1 cells may be fully confluent and differentiated after 4 to 8 days of incubation. At this time, the cells may be applied to penetration test. The monolayer membrane resistance was measured with a resistance meter (Millipore), and the resistance per well was recorded. After the test, the transwells were returned to the incubator.
The transwells with MDCKII-MDR1 cells were taken from the incubator. The cell monolayers were rinsed twice with buffer and incubated at 37° C. for 30 minutes.
The rate of the compounds from an apical end to a basolateral end was determined. 75 μL of the buffer containing the test sample was added to each well of the apical chambers (apical end), and 235 μL of the buffer was added to each well of the basolateral chambers (basolateral end).
The rate of the compounds transporting from the basolateral end to the apical end was determined. 75 μL of the buffer was added to the apical chambers (apical end), and 235 μL of the buffer containing the test sample was added to the basolateral chamber (basolateral end).
After the apical chambers and the basolateral chambers were combined respectively, the transwells were incubated at 37° C. for 2 hours.
After incubation, 50 μL of the sample from each well of the apical chambers and the basolateral chambers of the transwells was transferred to new sample tubes respectively. 200 μL of acetonitrile (100 nM of Alprazolam, 200 nM of Labetalol, 200 nM of caffeine, and 2 μM of Ketoprofen) as an internal standard was added to the sample tubes, vortexed for 10 minutes, and centrifuged at 3220 g for 30 minutes. 100 μL of the supernatant was taken and diluted with an equal volume of water for LC-MS/MS analysis. Each sample was incubated in triplicate.
Peak-areas were calculated from ion chromatography results. The apparent permeability coefficient (Papp, unit: cm/s×10-6) of the compounds was calculated by the following formula.
In the formula, VA was the volume of the solution at the acceptor end (Ap→B1 was 0.235 mL, and B1→Ap was 0.075 mL), Area was the membrane area (0.143 cm^2) of 96-well transwell, time was the incubation time (unit: s), [drug]acceptor referred to the drug concentration of the acceptor end after incubation, and [drug]initial,donor referred to the initial concentration of the donor end before incubation.
Efflux ratio was calculated with the following formula.
In the formula, Papp(B_A) was the apparent permeability coefficient from the basolateral end to the apical end, and Papp(A-B) was the apparent permeability coefficient from the apical end to the basolateral end.
The recovery rate was calculated with the following formula.
In the formula, VA was the solution volume of the acceptor end (unit: mL), VD was the solution volume of the donor end (unit: mL), [drug]acceptor referred to the drug concentration of the acceptor end after incubation, and [drug]initial,donor referred to the initial concentration of the donor end before incubation.

[1] = Hepatomicrosome stability, rat; settings: for Remaining percentage after 30 minutes: Rat, 2 μM
Method: 1a) With NADPH: 10 μL of 20 mg/mL of hepatomicrosome and 40 μL of 10 mM of NADPH were added to medium. The final concentrations of hepatomicrosome and NADPH were 0.5 mg/mL and 1 mM, respectively.
1b) Without NADPH: 10 μL of 20 mg/mL hepatomicrosome and 40 μL of ultra-pure H2O were added to medium. The final concentration of hepatomicrosome was 0.5 mg/mL.
3) 3) Aliquots of 50 μL from the reaction solutions at 0 minute and 30 minutes were taken. The reaction solutions were stopped by adding 4 volumes of cold acetonitrile and 4 internal standards (IS internal standard, 100 nM of Alprazolam, 200 nM of caffeine, 200 nM of Labetalol, and 2 μM of Ketoprofen) to stop the reaction solution. The samples were centrifuged at 3,220 g for 40 minutes. Aliquots of 100 μL of the supernatants were mixed with 100 μL of ultra-pure H2O. Then, the mixtures were used for LC-MS/MS analysis. All experiments were performed in duplicate. The test results were as follow.

H460 cell line = assay: Cytotoxicity comparison of TH-302 and compound 01 on H460 at different test times; type: cell-based, human; settings: for pIC50: Homo sapiens, NCI-H460, 2 h, H460, exposure for 2 hours, air
Text: The cytotoxicity test results of TH-302 and compound 01 on H460 cell line under different test times in the same laboratory, the same operator, and the same experimental conditions.

NCI-H460 cells = assay: CDX model, subcutaneously transplanted human lung cancer; type: in vivo, BALB/c nude mice; settings: for Relative tumor inhibition rate TGI (%): 31st day after inoculation
Method: BALB/c nude mice were subcutaneously inoculated with human lung cancer cells, NCI-H460 cells, to establish a subcutaneously transplanted tumor model of human lung cancer. The experiment was divided into a 20 mg/kg of the test drug compound 01 group, a 40 mg/kg of the test drug compound 01 group, and a vehicle control group with 10% of ethanol+10% of polyoxyethylene (35) castor oil, Cremophor EL+80% of 5% of glucose injection (pH7.4), and 6 mice in each group. […] The 40 mg/kg of the test drug compound 01 group was administered by tail vein injection, once every three weeks, for a total of 2 administrations, and observed for a week after the second administration. The 20 mg/kg of the test drug compound 01 group was administered by intraperitoneal injection once a day for 5 consecutive days and observed for 24 days. The efficacy was evaluated based on the relative tumor inhibition rate TGI (%). The safety evaluation was performed based on changes in animal body weight and mortality. The administered doses of compound 01 were determined based on the MTD experiment.
The tumor volume of each group of mice was measured on different days respectively, and the average value was obtained.

Sequence of P-glycoprotein (P08183 whole entry): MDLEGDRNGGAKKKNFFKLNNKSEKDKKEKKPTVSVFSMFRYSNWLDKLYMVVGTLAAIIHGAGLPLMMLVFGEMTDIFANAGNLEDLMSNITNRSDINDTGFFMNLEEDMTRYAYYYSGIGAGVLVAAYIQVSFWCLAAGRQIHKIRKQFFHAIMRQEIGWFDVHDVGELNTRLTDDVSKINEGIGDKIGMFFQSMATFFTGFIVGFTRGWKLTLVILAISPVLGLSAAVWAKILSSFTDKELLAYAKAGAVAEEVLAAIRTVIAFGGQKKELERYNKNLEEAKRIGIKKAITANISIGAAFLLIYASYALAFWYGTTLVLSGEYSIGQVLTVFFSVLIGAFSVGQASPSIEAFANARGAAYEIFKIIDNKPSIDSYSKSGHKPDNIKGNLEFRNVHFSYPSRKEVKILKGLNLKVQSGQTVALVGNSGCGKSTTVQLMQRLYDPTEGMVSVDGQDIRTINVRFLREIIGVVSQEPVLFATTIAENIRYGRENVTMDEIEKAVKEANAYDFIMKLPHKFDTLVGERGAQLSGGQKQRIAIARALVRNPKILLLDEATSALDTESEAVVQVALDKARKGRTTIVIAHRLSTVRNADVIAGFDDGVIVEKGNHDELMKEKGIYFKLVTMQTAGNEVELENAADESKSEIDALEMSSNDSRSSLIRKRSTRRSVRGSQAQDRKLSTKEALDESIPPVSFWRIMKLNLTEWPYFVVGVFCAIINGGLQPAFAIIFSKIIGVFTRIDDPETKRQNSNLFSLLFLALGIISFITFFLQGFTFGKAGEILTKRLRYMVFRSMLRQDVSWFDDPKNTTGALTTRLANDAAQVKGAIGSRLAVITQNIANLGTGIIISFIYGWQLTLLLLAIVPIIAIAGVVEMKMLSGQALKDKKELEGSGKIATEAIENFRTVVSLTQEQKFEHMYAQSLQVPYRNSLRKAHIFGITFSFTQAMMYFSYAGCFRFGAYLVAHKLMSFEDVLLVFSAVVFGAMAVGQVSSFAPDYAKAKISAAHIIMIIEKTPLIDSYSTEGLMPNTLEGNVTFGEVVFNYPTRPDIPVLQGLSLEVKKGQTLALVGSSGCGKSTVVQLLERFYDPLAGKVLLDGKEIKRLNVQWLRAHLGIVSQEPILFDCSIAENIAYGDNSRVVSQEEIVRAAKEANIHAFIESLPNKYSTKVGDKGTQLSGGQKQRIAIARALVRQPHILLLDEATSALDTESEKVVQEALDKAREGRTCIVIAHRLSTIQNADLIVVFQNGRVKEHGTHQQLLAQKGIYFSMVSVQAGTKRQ

Work on `O=[N+]([O-])c1ccc(C(OP(=O)(N2CC2)N2CC2)C(F)(F)F)c2ccccc12` (stereo not drawn) [Compound 01] yielded a Papp A→B at 2 h (P-glycoprotein; dog, MDCK-MDR1) of 18.6 ×10⁻⁶ cm/s, a Papp B→A at 2 h (P-glycoprotein; dog, MDCK-MDR1) of 11.9 ×10⁻⁶ cm/s and a recovery at 2 h (P-glycoprotein; dog, MDCK-MDR1, Recovery (%) AP-BL, Verapamil 0 μM) of 58.6%. It also gave a recovery at 2 h (P-glycoprotein; dog, MDCK-MDR1, Recovery (%) AP-BL, Verapamil 100 μM) of 63.4%, a recovery at 2 h (P-glycoprotein; dog, MDCK-MDR1, Recovery (%) BL-AP, Verapamil 0 μM) of 58.6% and a recovery at 2 h (P-glycoprotein; dog, MDCK-MDR1, Recovery (%) BL-AP, Verapamil 100 μM) of 67.3%. The “P-glycoprotein substrate (experimental conclusion)” value (P-glycoprotein; with vs without Verapamil) was “not P-glycoprotein substrates”, the “Remaining percentage after 30 minutes” value ([1]; with NADPH) was 71.05% and the “Remaining percentage after 30 minutes” value ([1]; without NADPH) was 111.15%. For the same compound, the “Stability in hepatomicrosomes (conclusion)” value ([1]; rat) was “unstable”, the pIC50 (H460 cell line; Time 1) was 6.15 and the pIC50 (H460 cell line; Time 2) was 6.52. For the same compound, the pIC50 (H460 cell line; Time 3) was 6.30, the “Multiple TH-302/Compound 01” value (H460 cell line; Time 1) was 32.9 and the “Multiple TH-302/Compound 01” value (H460 cell line; Time 2) was 26.7. For the same compound, the “Multiple TH-302/Compound 01” value (H460 cell line; Time 3) was 6.6, the “Relative tumor inhibition rate TGI (%)” value (NCI-H460 cells; 20 mg/kg, QD×5×1 week, IP, Exp. group 8) was 76.22% and the “Relative tumor inhibition rate TGI (%)” value (NCI-H460 cells; 40 mg/kg, Q3W×2, IV, Exp. group 7) was 66.87%. It also gave a Tumor volume (NCI-H460 cells; day 7, Exp. group 7, 40 mg/kg, Q3W×2, IV) of 143.84 mm^3, a Tumor volume (NCI-H460 cells; day 7, Exp. group 8, 20 mg/kg, QD×5×1 week, IP) of 144.63 mm^3 and a Tumor volume (NCI-H460 cells; day 10, Exp. group 7, 40 mg/kg, Q3W×2, IV) of 184.06 mm^3. For the same compound, the Tumor volume (NCI-H460 cells; day 10, Exp. group 8, 20 mg/kg, QD×5×1 week, IP) was 173.09 mm^3, the Tumor volume (NCI-H460 cells; day 14, Exp. group 7, 40 mg/kg, Q3W×2, IV) was 153.75 mm^3 and the Tumor volume (NCI-H460 cells; day 14, Exp. group 8, 20 mg/kg, QD×5×1 week, IP) was 152.99 mm^3. The Tumor volume (NCI-H460 cells; day 17, Exp. group 7, 40 mg/kg, Q3W×2, IV) was 159.72 mm^3, the Tumor volume (NCI-H460 cells; day 17, Exp. group 8, 20 mg/kg, QD×5×1 week, IP) was 130.06 mm^3 and the Tumor volume (NCI-H460 cells; day 21, Exp. group 7, 40 mg/kg, Q3W×2, IV) was 218.13 mm^3. For the same compound, the Tumor volume (NCI-H460 cells; day 21, Exp. group 8, 20 mg/kg, QD×5×1 week, IP) was 129.66 mm^3, the Tumor volume (NCI-H460 cells; day 24, Exp. group 7, 40 mg/kg, Q3W×2, IV) was 291.07 mm^3 and the Tumor volume (NCI-H460 cells; day 24, Exp. group 8, 20 mg/kg, QD×5×1 week, IP) was 164.63 mm^3. It also gave a Tumor volume (NCI-H460 cells; day 28, Exp. group 7, 40 mg/kg, Q3W×2, IV) of 520.17 mm^3, a Tumor volume (NCI-H460 cells; day 28, Exp. group 8, 20 mg/kg, QD×5×1 week, IP) of 272.20 mm^3 and a Tumor volume (NCI-H460 cells; day 31, Exp. group 7, 40 mg/kg, Q3W×2, IV) of 580.70 mm^3. It also gave a Tumor volume (NCI-H460 cells; day 31, Exp. group 8, 20 mg/kg, QD×5×1 week, IP) of 447.50 mm^3, a Tumor volume (NCI-H460 cells; day 35, Exp. group 7, 40 mg/kg, Q3W×2, IV) of 447.32 mm^3 and a Tumor volume (NCI-H460 cells; day 35, Exp. group 8, 20 mg/kg, QD×5×1 week, IP) of 651.58 mm^3.

Source: patent US20230026163A1, “ANTICANCER COMPOUND AND MEDICAL USE THEREOF” (ASCENTAWITS PHARMACEUTICALS, LTD., priority 2019, published 2023)
